# Assay results from US20170002313A1, “COMPOSITIONS AND METHODS OF OBTAINING AND USING ENDODERM AND HEPATOCYTE CELLS” (Genentech Inc., priority 2012, published 2017).
# How the values were obtained:
# phosphorylated AKT = experiment: Phospho imaging assay (immunofluorescence); assay type: cell-based, human; conditions: 60 min; treated versus untreated cells, fluorescence intensity
# Description: (§1) The effect of each compound on the PI3K/AKT/MTOR pathway was evaluated in two ways: via a kinase profile (FIG. 23) and via phospho imaging assays (i.e., immunofluorescence assays using antibodies specific for the phosphorylated form of mTOR or AKT). In vitro kinase profiling provided percent inhibition for numerous targets within the PI3K cell signaling pathway, and cell-based imaging assays were performed to directly visualize the effect of each compound on phosphorylated Akt and phosphorylated mTOR in the cell system used for differentiation.
# (§2) In column 2 of Table 6, the PI3K alpha_MTOR score reflects the ability of a compound to inhibit the phosphorylation of PI3K alpha and mTOR, where + indicates minimal inhibition, and +++ indicates maximal inhibition. In column 3 of Table 6, the score indicates the ratio of phosphorylated mTOR (as measured by fluorescence intensity) in cells treated with a compound and the phosphorylated mTOR (as measured by fluorescence intensity) in cells that were not treated with the compound. In column 4 of Table 6, the score indicates the ratio of phosphorylated AKT (as measured by fluorescence intensity) in cells treated with a compound and the phosphorylated AKT (as measured by fluorescence intensity) in cells that were not treated with the compound. A reported effect of AKT inhibitors is an increase in phosphorylated AKT.
# phosphorylated mTOR = experiment: Phospho imaging assay (immunofluorescence); assay type: cell-based, human; conditions: 60 min; treated versus untreated cells, fluorescence intensity
# Description: as §1, §2
# mTOR = mTOR (Homo sapiens, UniProt P42345); experiment: In vitro kinase profile, PI3K alpha_MTOR score; assay type: biochemical
# Description: as §1, §2
# [1] = test system: human embryonic stem cells (hESC); experiment: Endoderm differentiation of hESC with small-molecule inhibitors, flow cytometry of endoderm markers; assay type: cell-based; conditions: Activin A + 750 nM inhibitor, no Wnt3a, 3-day treatment
# Source text: A variety of cell-type specific markers were used to monitor the differentiation of stem cells into endoderm cells in the flow cytometry, fluorescence imaging, and immunoassay experiments described below. To detect endoderm conversion, hESC-derived cell samples were stained for the expression of SOX17, FoxA2, and CXCR4 proteins. SOX17, FoxA2, and CXCR4 are proteins that are expressed by endoderm cells but not by stem cells. To detect stem cells, cell samples were stained for the expression of OCT4, a protein expressed by stem cells but not by endoderm cells.
# Undifferentiated human embryonic stem cells (hES) were maintained at a density of 40,000 cells/cm^2 on qualified matrigel (BD, #354277) in TesR™2 medium ([…]™ Technologies #05860). Cultures were manually passaged twice a week. To prepare for endoderm differentiation, hESC cells were passaged into TesR™2 medium overnight. The following day, the TesR™2 medium was replaced with basal medium (DMEM/F12+Glutamax (Invitrogen, #10565) supplemented with B27 (Invitrogen, #17504-044)). No human embryos were destroyed in the process of obtaining stem cells for these methods. Furthermore, the plurality of stem cells is not obtained by the prior destruction of human embryos.
# Unless otherwise noted, basal medium was supplemented with […] human Activin A (Peprotech, #120-14). When indicated, basal medium was also supplemented with an effective amount of, e.g., a growth factor such as […] human Wnt3a (R&D, #5036-WN-010), an isoform-specific P13K inhibitor or an mTOR inhibitor. […]
# To prepare the cells for flow cytometry, hESC-derived cells grown under endoderm differentiation conditions were dissociated using Accutase (Innovative Cell technologies, #AT-104). Briefly, the cells were washed once in PBS, incubated with Accutase for 10 minutes at room temperature, pelleted, and washed in cold PBS. The Accutase-dissociated hESC-derived cell samples were stained with anti-CXC4 antibody, anti-SOX17 antibody, or anti-FoxA2 antibody. Additional cell samples were stained with isotype control antibodies (e.g., IgG1 or IgG2).
# The cells that were to be stained with anti-CXCR4 antibody were washed once with cold DPBS and then directly stained with mouse anti-human CD184 (CXCR4)-IgG2-PE (BD, #555974) for one hour at 4° C. The cells that were to be stained with anti-SOX17 antibody or anti-FoxA2 antibody were first fixed for 25 minutes at 4° C. in fixation buffer (BD, #554655) and permeabilized for 30 minutes on ice in Perm Buffer III (BD, #554656). Anti-SOX17 staining was performed using a mouse anti-SOX17 IgG1-PE antibody (BD, #561591) at room temperature for 30 minutes. Anti-FoxA2 staining was performed using a mouse anti-human FoxA2 IgG1 (BD, #561589) under the same conditions. A control sample of cells were fixed as described above and stained with either an anti-IgG1-PE antibody (BD, #554680) at room temperature for 30 minutes or an anti-IgG2-PE antibody (BD, #55574) for one hour at 4° C.
# The antibody-stained hESC-derived cells were then analyzed via flow cytometry using a BD LSRFortessa™ cell analyzer. […] Approximately 1×10^6 cells were analyzed per sample.
# PI3K alpha = PI3K alpha (Homo sapiens, UniProt P42336); experiment: In vitro kinase profile, PI3K alpha_MTOR score; assay type: biochemical
# Description: as §1, §2
# [2] = test system: human embryonic stem cells (hESC); experiment: AlphaLISA of SOX17 and OCT4 in hESC-derived cells; assay type: cell-based; conditions: Activin A + 750 nM inhibitor, no Wnt3a, 3-day treatment
# Description: To detect OCT4, the cells were washed three times in PBS and lysed with 50 ul AlphaLISA Lysis Buffer (Perkin Elmer, #AL003C). The lysis buffer was added to each cell sample and mixed with the cells five times. The cell samples were then incubated in a plate shaker at room temperature for 15 minutes. 5 μl of the lysate from each sample was then transferred to a 384 well OptiPlate (Perkin Elmer, #6005629). 5 μl of 10 ug/ml anti-rabbit acceptor bead (Perkin Elmer, #AL104M) and […] of 0.2 nM of rabbit anti-OCT4 antibody (Cell Signaling, #2890) was added to each well and incubated for 2 hours at room temperature. Following the incubation, 5 μl of 0.5 nM mouse anti-OCT4 antibody (BD, #611203) and […] of 0.5 nM biotinylated goat anti-mouse antibody (Invitrogen, #B2763) were added to each well and incubated at room temperature for 2 hours. Following the incubation, […] of streptavidin donor beads (Perkin Elmer, #6760002B) were added to each well and incubated for 30 minutes. The OptiPlates were then analyzed using an Envision Multilabel Plate Reader (Perkin Elmer, #2104-0010). All beads and antibodies were diluted as necessary in IAB Buffer (Perkin Elmer, #AL000C)+50 mM NaCl. Four replicate assays were performed.
# To detect SOX17, the cells were washed three times in PBS and lysed with 50 ul Roche Complete Lysis Buffer (Roche, #04719956001). The lysis buffer was added to each cell sample and mixed with the cells five times. The cell samples were then incubated in a plate shaker at room temperature for 15 minutes. 5 μl of the lysate from each sample was then transferred to a 384 well OptiPlate (Perkin Elmer, #6005629). 5 μl of 10 ug/ml anti-rabbit acceptor bead (Perkin Elmer, #AL104M) and […] of 1 nM of rabbit anti-SOX17 antibody (Sigma, #AV33271) was added to each well and incubated for 2 hours at room temperature. Following the incubation, 5 μl of 0.5 nM mouse anti-SOX antibody (Sigma, #SAB3300093) and […] of 0.5 nM biotinylated goat anti-mouse antibody (Invitrogen, #B2763) were added to each well and incubated at room temperature for 2 hours. Following the incubation, […] of streptavidin donor beads (Perkin Elmer, #6760002B) were added to each well and incubated for 30 minutes. The OptiPlates were then analyzed using an Envision Multilabel Plate Reader (Perkin Elmer, #2104-0010). All beads and antibodies were diluted as necessary in IAB Buffer (Perkin Elmer, #AL000C) Four replicate assays were performed.
# After a 3-day treatment, cells were harvested and stained with anti-SOX17 antibody as described above in preparation for AlphaLISA analysis.
# Chain of PI3K alpha (P42336 whole entry, species assumed): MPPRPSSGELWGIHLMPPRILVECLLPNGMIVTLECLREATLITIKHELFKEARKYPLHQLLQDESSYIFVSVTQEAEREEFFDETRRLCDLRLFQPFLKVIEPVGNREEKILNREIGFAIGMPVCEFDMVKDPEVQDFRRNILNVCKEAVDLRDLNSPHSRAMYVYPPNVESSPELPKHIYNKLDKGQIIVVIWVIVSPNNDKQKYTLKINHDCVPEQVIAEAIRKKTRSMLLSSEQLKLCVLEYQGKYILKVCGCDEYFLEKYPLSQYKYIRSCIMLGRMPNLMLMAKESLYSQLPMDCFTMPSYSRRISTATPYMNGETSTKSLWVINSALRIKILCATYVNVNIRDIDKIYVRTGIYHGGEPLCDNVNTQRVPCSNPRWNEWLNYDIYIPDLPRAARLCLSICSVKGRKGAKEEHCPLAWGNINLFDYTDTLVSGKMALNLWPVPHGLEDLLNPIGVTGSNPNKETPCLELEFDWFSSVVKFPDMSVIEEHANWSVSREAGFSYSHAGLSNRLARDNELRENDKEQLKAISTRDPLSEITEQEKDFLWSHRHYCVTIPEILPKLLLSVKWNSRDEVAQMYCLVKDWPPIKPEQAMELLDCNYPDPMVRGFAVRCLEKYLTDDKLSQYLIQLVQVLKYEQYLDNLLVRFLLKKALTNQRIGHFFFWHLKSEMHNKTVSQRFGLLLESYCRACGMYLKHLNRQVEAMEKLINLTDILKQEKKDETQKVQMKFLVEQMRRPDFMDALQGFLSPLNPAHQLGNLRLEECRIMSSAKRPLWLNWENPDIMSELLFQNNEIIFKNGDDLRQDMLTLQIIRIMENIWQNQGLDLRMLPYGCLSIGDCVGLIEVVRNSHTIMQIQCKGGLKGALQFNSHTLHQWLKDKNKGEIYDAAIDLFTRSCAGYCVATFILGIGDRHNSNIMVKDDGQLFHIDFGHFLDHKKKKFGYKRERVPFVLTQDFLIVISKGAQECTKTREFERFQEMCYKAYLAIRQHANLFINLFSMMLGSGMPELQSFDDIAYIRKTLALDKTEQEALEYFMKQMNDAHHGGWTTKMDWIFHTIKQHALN
# Chain of PI3K alpha (P27986 whole entry partner, species assumed): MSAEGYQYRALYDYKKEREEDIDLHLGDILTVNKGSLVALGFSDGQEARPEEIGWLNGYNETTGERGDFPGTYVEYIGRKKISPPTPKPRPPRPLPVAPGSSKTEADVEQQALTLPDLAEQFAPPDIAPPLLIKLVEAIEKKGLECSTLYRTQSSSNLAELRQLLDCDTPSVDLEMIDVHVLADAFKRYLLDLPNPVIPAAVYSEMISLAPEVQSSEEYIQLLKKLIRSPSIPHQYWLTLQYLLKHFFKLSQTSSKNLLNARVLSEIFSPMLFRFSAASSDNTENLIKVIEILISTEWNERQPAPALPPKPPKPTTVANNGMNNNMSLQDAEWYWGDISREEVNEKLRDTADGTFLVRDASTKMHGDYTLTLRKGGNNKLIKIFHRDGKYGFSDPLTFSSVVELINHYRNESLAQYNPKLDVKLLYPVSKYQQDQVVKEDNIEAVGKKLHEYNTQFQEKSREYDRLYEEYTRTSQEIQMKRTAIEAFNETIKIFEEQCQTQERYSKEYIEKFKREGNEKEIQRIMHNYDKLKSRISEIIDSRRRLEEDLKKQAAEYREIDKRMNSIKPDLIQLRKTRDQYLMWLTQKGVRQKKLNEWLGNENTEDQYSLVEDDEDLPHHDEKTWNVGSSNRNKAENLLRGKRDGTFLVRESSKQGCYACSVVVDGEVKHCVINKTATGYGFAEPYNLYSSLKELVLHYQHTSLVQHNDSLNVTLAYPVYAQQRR
SMILES,Max(Avg (Ph AKT_60min_Intensity)) (phosphorylated AKT),Avg(Avg (Ph MTOR_60m_%C # Spots)) (phosphorylated mTOR) [%C],PI3K alpha_MTOR score: MTOR (mTOR),"endoderm conversion (SOX17, FoxA2, CXCR4 flow cytometry) [1]",PI3K alpha_MTOR score: PI3K alpha (PI3K alpha),endoderm conversion (SOX17 AlphaLISA) [2]
Clc1ccc(C2(c3ccc(-c4cn[nH]c4)cc3)CCNCC2)cc1 [AT7867],122.15,73.59,,,,
COc1ccc(-c2ccc3c(N4CCOC[C@@H]4C)nc(N4CCOC[C@@H]4C)nc3n2)cc1CO [AZD 8055],,15.8,+++,,,
Cc1c(CN2CCN(C(=O)[C@H](C)O)CC2)sc2c(N3CCOCC3)nc(-c3cnc(N)nc3)nc12 [GDC0980],,9.99,,,,
CCn1c(-c2nonc2N)nc2c(C#CC(C)(C)O)ncc(OC[C@H]3CCCNC3)c21 [GSK690693],,,,higher degree of endoderm conversion,,
COc1ncc(-c2ccc3nccc(-c4ccnnc4)c3c2)cc1NS(=O)(=O)c1ccc(F)cc1F [GSK2126458],,15.55,PI3K alpha+++_MTOR+++,,PI3K alpha+++_MTOR+++,
COc1ccc(-c2ccc3c(N4CCOCC4)nc(N4C[C@@H](C)O[C@@H](C)C4)nc3n2)cc1CO [KU0063794],,25.83,+++,higher degree of endoderm conversion,+,better endoderm conversion than cells cultured in Activin A alone or cells cultured with an Akt inhibitor
Cn1c(=O)n(-c2ccc(C(C)(C)C#N)cc2)c2c3cc(-c4cnc5ccccc5c4)ccc3ncc21 [NVPBEZ235],88.3,43.44,,,,
Nc1cc(C(F)(F)F)c(-c2cc(N3CCOCC3)nc(N3CCOCC3)n2)cn1 [NVPBKM120],,60.28,PI3K alpha+++_MTOR+++,,PI3K alpha+++_MTOR+++,
Oc1cccc(-c2nc(N3CCOCC3)c3oc4ncccc4c3n2)c1 [PI103],,5.59,PI3K alpha+++_MTOR+++,,PI3K alpha+++_MTOR+++,
COc1ccc2c(c1OC)N=C(NC(=O)c1cccnc1)N1CCN=C21 [PIK90],86.72,42.17,,,+++,
CN(C)C1CCN(C(=O)c2ccc(NC(=O)Nc3ccc(-c4nc(N5CCOCC5)nc(N5CCOCC5)n4)cc3)cc2)CC1 [PKI 587],,77.99,+++,,,
CO[C@H]1C[C@@H]2CC[C@@H](C)[C@@](O)(O2)C(=O)C(=O)N2CCCC[C@H]2C(=O)O[C@H]([C@H](C)C[C@@H]2CC[C@@H](O)[C@H](OC)C2)CC(=O)[C@H](C)/C=C(\C)[C@@H](O)[C@@H](OC)C(=O)[C@H](C)C[C@H](C)/C=C/C=C/C=C/1C [Rapamycin],,57.77,,,,
CO[C@H]1C[C@@H]2CC[C@@H](C)[C@@](O)(O2)C(=O)C(=O)N2CCCC[C@H]2C(=O)O[C@H]([C@H](C)C[C@@H]2CC[C@@H](OC(=O)C(C)(CO)CO)[C@H](OC)C2)CC(=O)[C@H](C)/C=C(\C)[C@@H](O)[C@@H](OC)C(=O)[C@H](C)C[C@H](C)/C=C/C=C/C=C/1C [Temsirolimus],,42.12,,,,
CCC(=O)N1CCN(c2ccc(-n3c(=O)ccc4cnc5ccc(-c6cnc7ccccc7c6)cc5c43)cc2C(F)(F)F)CC1 [Torin1],89.48,66.6,,,,
COC(=O)Nc1ccc(-c2nc(N3CCOCC3)c3cnn(C4CCN(C(=O)OC)CC4)c3n2)cc1 [WYE - 354],89.35,10.49,+++,higher degree of endoderm conversion,,better endoderm conversion than cells cultured in Activin A alone or cells cultured with an Akt inhibitor
COC(=O)Nc1ccc(-c2nc(N3CCOCC3)c3cnn(C4CCN(Cc5cccnc5)CC4)c3n2)cc1 [WYE-687],86.65,12.81,+++,,+,
CNC(=O)Nc1ccc(-c2nc(N3CC4CCC(C3)O4)c3cnn(C4CCC5(CC4)OCCO5)c3n2)cc1 [WYE-125132],,17.55,+++,,,
COC[C@H]1OC(=O)c2coc3c2[C@@]1(C)C1=C(C3=O)[C@@H]2CCC(=O)[C@@]2(C)C[C@H]1OC(C)=O [Wortmannin],,10.47,,,,
